The text below walks through data of patent US8431593B2, “Heteroaryl amide derivatives” (H. Lundbeck A/S, priority 2006, dated 2013).

One experiment addresses T1, P2X7 receptor (Homo sapiens, UniProt Q99572).
T1 construct: host or cells: SH-SY5Y
T1 sequence (Q99572 1-595): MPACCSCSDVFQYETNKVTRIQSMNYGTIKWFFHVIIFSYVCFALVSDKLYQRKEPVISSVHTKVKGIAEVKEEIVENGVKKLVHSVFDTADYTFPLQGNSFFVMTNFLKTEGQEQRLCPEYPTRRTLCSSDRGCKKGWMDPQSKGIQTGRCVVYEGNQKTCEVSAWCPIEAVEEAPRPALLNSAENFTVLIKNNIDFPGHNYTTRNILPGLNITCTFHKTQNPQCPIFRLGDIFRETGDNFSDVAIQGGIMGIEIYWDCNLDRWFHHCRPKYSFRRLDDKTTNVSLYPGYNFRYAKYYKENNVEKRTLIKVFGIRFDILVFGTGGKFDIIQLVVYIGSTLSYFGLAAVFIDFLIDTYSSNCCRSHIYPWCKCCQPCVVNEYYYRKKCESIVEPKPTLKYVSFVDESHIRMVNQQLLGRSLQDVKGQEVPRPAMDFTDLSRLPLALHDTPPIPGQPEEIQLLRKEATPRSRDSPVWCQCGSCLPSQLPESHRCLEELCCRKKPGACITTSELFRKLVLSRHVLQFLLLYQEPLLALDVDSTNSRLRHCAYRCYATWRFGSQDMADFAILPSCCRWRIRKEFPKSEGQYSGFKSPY
The experiment can be described thus: P2X7 calcium mobilization assay, high throughput, antagonist activity (Example 4A). The class given is cell-based.
Conditions: not given
A digest of the protocol:
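100,000 cells/well, plated day -1. Dye 1 h → rinse → compound 1 h, RT → FLIPR^TETRA Ca2+ mobilization. Max RFU minus mean negative control (no agonist); mean agonist-well max as positive control.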
Take `CNCCN(C)Cc1cn2c(C(=O)NCC34CC5CC(CC(C5)C3)C4)cccc2n1` [Compound 124, N-(adamantan-1-ylmethyl)-2-({methyl[2-(methylamino)eth-yl]amino}methyl)imi-dazo[1,2-a]pyridine-5-carboxamide]: the IC50 was below 2000 nM.

Staying with this experiment, now noted: 50% decrease in the fluorescence response of cells exposed to 80 μM 2′(3′)-O-(4-benzoyl-benzoyl)adenosine 5′-triphosphate; Example 4A; read-out: IC50.
With `CC1(C)[C@H]2CC[C@@H](CNC(=O)c3cccc4nc(C(=O)NC5CCC5)cn34)[C@@H]1C2` [Compound 495, 2-N-cyclobutyl-5-N-{[(1S,2R,5S)-6.6-dimethylbicyclo[3.1.1]hept-2-yl]methyl} imidazo[1,2-a]pyridine-2,5-dicarboxamide], the IC50 was below 2000 nM.

Turning to `O=C(O)CCNC(=O)c1cn2c(C(=O)NCC34CC5CC(CC(C5)C3)C4)cccc2n1` [Compound 544, N-({5-[(adamantan-1-ylmethyl)carbamoyl)imidazo[1,2-a]pyridin-2-yl}carbonyl)-beta-alanine], the half-inhibitory concentration (IC50) is below 2000 nM.

As for `O=C(NCC12CC3CC(CC(C3)C1)C2)c1cccc2nc(C(=O)N3CCCNCC3)cn12` [Compound 608, N-(adamantan-1-ylmethyl)-2-(1,4-diazepan-1-ylcarbonyl)imidazo[1,2-a]pyridine-5-carboxamide], the half-maximal inhibitory concentration (IC50) is below 2000 nM.

The experiment is the same for the next values; noted with them: 50% decrease in the fluorescence response of cells exposed to 80 μM of 2′(3′)-O-(4-benzoyl-benzoyl)adenosine 5′-triphosphate; Example 4A; read-out: IC50.
Turning to `CC(C)N(C(=O)c1cn2c(C(=O)NCC34CC5CC(CC(C5)C3)C4)cccc2n1)C1CCN(C)CC1` [Compound 680, 5-N-(adamantan-1-ylmethyl)-2-N-isopropyl-2-N-(1-methylpiperidin-4-yl)imidazo[1,2-a]pyridine-2,5-dicarboxamide], the concentration for half-maximal inhibition (IC50) is below 2000 nM.

For the compound `CCOC(=O)C(CC(=O)N(CC)CC)c1cn2c(C(=O)NCC34CC5CC(CC(C5)C3)C4)cccc2n1` (stereo not drawn) [Compound 810, ethyl 2-{5-[(adamantan-1-ylmethyl)carbamoyl]imidazo[1,2-a]pyridin-2-yl}-4-(diethylamino)-4-oxobutanoate], the IC50 is below 2000 nM.

Consider `Cn1cc2c(n1)CCN(C(=O)c1cn3c(C(=O)NCC45CC6CC(CC(C6)C4)C5)cccc3n1)C2` [Compound 718, N-(adamantan-1-ylmethyl)-2-[(2-methyl-2,4,6,7-tetrahydro-5H-pyrazolo[4,3-c]pyridin-5-yl)carbonyl]imidazo[1,2-a]pyridine-5-carboxamide], for which the half-maximal inhibitory concentration (IC50) was below 2000 nM.

Consider `Cn1ncc2c1CCN(C(=O)c1cn3c(C(=O)NCC45CC6CC(CC(C6)C4)C5)cccc3n1)C2` [Compound 723, N-(adamantan-1-ylmethyl)-2-[(1-methyl-1,4,6,7-tetrahydro-5H-pyrazolo[4,3-c]pyridin-5-yl)carbonyl]imidazo[1,2-a]pyridine-5-carboxamide], for which the half-inhibitory concentration (IC50) is below 2000 nM.

On to `CNC1CCN(C(=O)CCc2cn3c(C(=O)NCC45CC6CC(CC(C6)C4)C5)cccc3n2)C1` (stereo not drawn) [Compound 779, N-(adamantan-1-ylmethyl)-2-{3-[3-(methylamino)pyrrolidin-1-yl]-3-oxopropyl} imidazo[1,2-a] pyridine-5-carboxamide], for which the IC50 is below 2000 nM.

Regarding `CN(C)CCNC(=O)C1CCCN(C(=O)c2cn3c(C(=O)NCC45CC6CC(CC(C6)C4)C5)cccc3n2)C1` (stereo not drawn) [Compound 704, N-(adamantan-1-ylmethyl)-2-[(3-{[2-(dimethylamino)ethyl]carbamoyl}piperidin-1-yl)carbonyl]imidazo[1,2-a]pyridine-5-carboxamide], the IC50 was below 2000 nM.

The same experiment, now with this note: 50% decrease in the fluorescence response of cells exposed to 80 μM of 2′(3′)-O-(4-benzoyl-benzoyl)adenosine 5′-triphosphate; determined as in Example 4A; read-out: IC50.
As for `O=C(Cc1cn2c(C(=O)NC3CCCCC3)cccc2n1)NCC1(c2ccc(Cl)cc2)CCCCC1` [Compound 980, 2-[2-({[1-(4-chlorophenyl)cyclohexyl]methyl}amino)-2-oxoethyl]-N-cyclohexyl-imidazo[1,2-a]pyridine-5-carboxamide], the IC50 was below 2000 nM.

On to `CC(C)CC(CNC(=O)c1cccc2nc(CC(=O)N3CCC[C@@H](N)C3)cn12)c1cccnc1` (stereo partly drawn) [Compound 946, 2-{2-[(3R)-3-aminopiperidin-1-yl]-2-oxoethyl}-N-(4-methyl-2-pyridin-3-ylpentyl) imidazo[1,2-a]pyridine-5-carboxamide], for which the IC50 was below 2000 nM.

As to `Cc1ccc(C2(CNC(=O)c3cccc4nc(CC(Cc5ccccc5)C(=O)O)cn34)CCCCC2)cc1` (stereo not drawn) [Compound 1011, 2-benzyl-3-[5-({[1-(4-methylphenyl)cyclohexyl]methyl}carbamoyl)imidazo[1,2-a]pyridin-2-yl] propanoic acid], the IC50 is below 2000 nM.

On to `O=C(Cc1cn2c(C(=O)NCC3(N4CCOCC4)CCCCC3)cccc2n1)NC1(CO)CCCC1` [Compound 988, 2-(2-{[1-(hydroxymethyl)cyclopentyl]amino}-2-oxoethyl)-N-[(1-morpholin-4-ylcyclohexyl)methyl] imidazo[1,2-a] pyridine-5-carboxamide], for which the half-inhibitory concentration (IC50) is below 2000 nM.

As to `COc1cccc(CC(C(=O)O)c2cn3c(C(=O)NCC45CC6CC(CC(C6)C4)C5)cccc3n2)c1` (stereo not drawn) [Compound 843, 2-{5-[(adamantan-1-ylmethyl)carbamoyl]imidazo[1,2-a]pyridin-2-yl}-3-(3-methoxyphenyl) propanoic acid], the half-maximal inhibitory concentration (IC50) was below 2000 nM.

The same experiment, now with this note: P2X7 calcium mobilization, Example 4A; 50% decrease in the fluorescence response of cells exposed to 80 μM of (2′(3′)-O-(4-benzoyl-benzoyl)adenosine 5′-triphosephate); read-out: IC50.
For the compound `CC(C)CC(CNC(=O)c1cccc2nccn12)c1ccc(C(F)(F)F)nc1` (stereo not drawn) [Compound 1051, N-{4-methyl-2-[6-(trifluoromethyl)pyridin-3-yl]pentyl} imidazo[1,2-a]pyridine-5-carboxamide], the half-inhibitory concentration (IC50) was below 2000 nM.

On to `O=C(NCC(c1ccc(Cl)cc1)N1CCOCC1)c1cccc2ncc(Br)n12` (stereo not drawn) [Compound 1057, 3-bromo-N-[2-(4-chlorophenyl)-2-morpholin-4-ylethyl] imidazo[1,2-a] pyridine-5-carboxamide], for which the concentration for half-maximal inhibition (IC50) is below 2000 nM.

On to `CC(C)CC(CNC(=O)c1cccc2nc(C(C)N3CCOCC3)cn12)c1ccc(Cl)cc1` (stereo not drawn) [Compound 1037, N-[2-(4-chlorophenyl)-4-methylpentyl]-2-(1-morpholin-4-ylethyl) imidazo[1,2-a]pyridine-5-carboxamide], for which the IC50 was below 2000 nM.

The experiment is the same for the next values; noted with them: SH-SY5Y cells; 50% decrease in fluorescence response to 80 μM BzATP; read-out: IC50.
`O=C(NCC12CC3CC(CC(C3)C1)C2)c1cccc2nc(C(=O)N3CCCC(O)C3)cn12` (stereo not drawn) [Compound 105, N-(adamantan-1-ylmethyl)-2-[(3-hydroxypiperidin-1-yl)carbonyl]imidazo[1,2-a]pyridine-5-carboxamide]: the half-inhibitory concentration (IC50) is below 2000 nM.

Consider `O=C(Cc1cn2c(C(=O)NCC34CC5CC(CC(C5)C3)C4)cccc2n1)NC1CCCCC1` [Compound 149, N-(adamantan-1-ylmethyl)-2-[2-(cyclohexylamino)-2-oxoethyl]imidazo[1,2-a]pyridine-5-carboxamide], for which the half-maximal inhibitory concentration (IC50) was below 2000 nM.

On to `NC(=O)CNC(=O)c1cn2c(C(=O)NCC34CC5CC(CC(C5)C3)C4)cccc2n1` [Compound 78, 5-N-(adamantan-1-ylmethyl)--(2-amino-2-oxoethyl)imidazo[1,2-a]pyridine-2,5-dicarboxamide], for which the half-maximal inhibitory concentration (IC50) is below 2000 nM.

In the case of `CCOC(=O)Cc1cn2c(C(=O)NCC(CC(C)C)c3ccccc3)cccc2n1` (stereo not drawn) [Compound 139, ethyl {5-[(4-methyl-2-phenylpentyl)car-bamoyl]imidazo[1,2-a]pyridin-2-yl}acetate], the half-inhibitory concentration (IC50) was below 2000 nM.

The experiment is the same for the next values; noted with them: fluorescence response of cells exposed to 80 μM 2′(3′)-O-(4-benzoyl-benzoyl)adenosine 5′-triphosphate; Example 4A; read-out: IC50.
On to `CC1CCN(C(=O)c2cn3c(NC(=O)CC45CC6CC(CC(C6)C4)C5)cccc3n2)CC1` [Compound 363, 2-adamantan-1-yl-N-{2-[(4-methylpiperidin-1-yl)carbonyl]imidazo[1,2-a]pyridin-5-yl}acetamide], for which the IC50 was below 2000 nM.

For the compound `O=C(O)c1ccc(=O)n(Cc2cn3c(C(=O)NCC45CC6CC(CC(C6)C4)C5)cccc3n2)c1` [Compound 350, 1-({5-[(adamantan-1-ylmethyl)carbamoyl]imidazo[1,2-a]pyridin-2-yl}methyl)-6-oxo-1,6-dihydropyridine-3-carboxylic acid], the IC50 is below 2000 nM.

For `CC(C)CC(CNC(=O)c1cccc2nc(C(=O)N3CCCC3)cn12)c1ccccc1` (stereo not drawn) [Compound 260, N-(4-methyl-2-phenylpentyl)-2-(pyrrolidin-1-ylcarbonyl)imidazo [1,2-a]pyridine-5-carboxamide], the IC50 is below 2000 nM.

For `CS(=O)(=O)NC1CCN(C(=O)c2cn3c(NC(=O)CC45CC6CC(CC(C6)C4)C5)cccc3n2)CC1` [Compound 398, 2-adamantan-1-yl-N-[2-({4-[(methylsulfonyl)amino]piperidin-1-yl}carbonyl)imidazo [1,2-a]pyridin-5-yl]acetamide], the IC50 is below 2000 nM.

Take `N[C@@H]1CCN(Cc2cn3c(NC(=O)CC45CC6CC(CC(C6)C4)C5)cccc3n2)C1` [Compound 299, 2-adamantan-1-yl-N-(2-{[(3R)-3-aminopyrrolidin-1-yl]methyl}imidazo[1,2-a]pyridin-5-yl)acetamide]: the concentration for half-maximal inhibition (IC50) was below 2000 nM.
